This experiment has as its system JEKO-1. As to the kind of experiment: cells. Also on record: species or system cell viability; MTT cell viability assay, absorbance 570/650 nm; IC50 by linear interpolation of concentration-response curve. To be noted: Homo sapiens, JeKo-1, 48 h; read-out: IC 50 values. On the procedure:
Supplementary file pone.0015479.s006.doc: Table S2 A list of compounds tested in this study. JEKO-1 cells were treated with each of the listed compounds at concentrations ranging from 1.25 µM to […]. Cell viability was determined by the MTT assay and used to obtain concentration-response curve. IC50 was extracted by linear interpolation. Click here for additional data file. HeLa and 293T cells from ATCC were maintained according to the standard procedures. JEKO-1 cells were kept in RPMI, 10% FCS as previously described. NOXA and control stable knock-down JEKO-1 cells were described previously. PBMC from normal volunteers were obtained from the Department of Transfusion Medicine, NIH and PBMC from CLL patients were obtained under NIH protocol 97-C-0178 with informed consent. Transfection was done with lipofectamine 2000 (Invitrogen) for 293T accordingly to manufacture's instruction. Pulse chase and denaturing immunoprecipitation were carried out as described previously, [48]. Subcellular fractionation experiments were carried out as previously described. Briefly, HeLa cells were harvested and washed with phosphate-buffered saline. Cells were then treated on ice with the buffer PB (25 mM Hepes, pH 7.2, 115 mM potassium acetate, 5 mM sodium acetate, 2.5 mM magnesium acetate, 0.5 mM EGTA, and a protease inhibitor cocktail) that also contain 0.028% digitonin. Cells were centrifuged at 20,000×g for 10 min. The cytosolic supernatant fraction was removed and the nucleus and membrane pellet fraction was washed twice with the PB buffer. The pellet fraction was finally resuspended in the PB buffer. The fluorescence intensity in these fractions was measured by the Victor 3 plate reader using the Ex482 and Em523 filter set. […] After 4 h incubation, the sample absorbance at 570 nm and […] were measured using a Victor 3 plate reader (Perkin Elmer, Waltham, MA) and ratio of drug-treated samples vs. the untreated control was used to determine cell viability. […] Fluorescence labeled secondary antibodies (Invitrogen, Carlsbad, CA) were used for detection. […]
Take `O=C(CCCC[C@@H]1SC[C@@H]2NC(=O)N[C@@H]21)N/N=C/C=C/c1ccc([N+](=O)[O-])o1` [CBU-032]: the IC50 stood at 25 µM.
The same measure for `CN(C)c1ccc(/C=C/C=N/NC(=O)CN2C(=O)N(c3ccc(Cl)cc3)C(N(O)C(=O)Nc3ccc(Cl)cc3)C2(C)C)cc1` (stereo not drawn) [CBU-059]: more than 40 µM.
For the molecule `CC1(C)C(N(O)C(=O)Nc2ccc(Cl)cc2)N(c2ccc(Cl)cc2)C(=O)N1CC(=O)N/N=C/C=C/c1ccc([N+](=O)[O-])o1` (stereo not drawn) [EerI, Eeyarestatin I], the IC50 amounted to 3.5 µM.

The record behind these values is paper PMC2993181 (PLoS ONE, 2010).
